Key:
Format in all cases: cell-based, mouse
[1] = system: NELFA-Strep-HA-P2A-EGFP mESCs; experiment: Flow cytometry of NELFA^high subpopulation in NELFA reporter mESCs
Protocol: (§1) Unless otherwise stated, all mESC lines were cultured in serum-containing ESC medium containing Knockout DMEM, 15% FCS, L-Glutamine, non-essential amino acids, penicillin/streptomycin, 2-mercaptoethanol and supplemented with LIF, 1 μM PD0325901 and 3 µM CHIR99021 (2i′). For serum-free ‘naïve’ culture condition, mESCs were grown in N2B27 medium supplemented with LIF and 2i. For 2-DG experiments, ESCs were grown in serum-containing ESC medium with 4 mM 2-DG (Sigma; D8375) for up to 4 days. For MYC inhibitor treatment, ESCs were grown in serum-containing ESC medium with […] MYC inhibitor, 10058-F4 (Abcam), for 3 days.
Mouse ES cells are grown in standard culture medium containing 4 mM of 2-DG inhibitor for 4 days, at 37° C. with 5% CO2. Culture medium containing 2-DG is changed every day during the induction. […] In a second system, where NELFA is under the control of a Dox inducible promoter, the expression is induced by culturing the ES cells with culture medium containing 0.4 μg/mL of Doxycycline for 16 hours at 37° C. with 5% CO2.
For NELFA-StrepHA-P2A-EGFP reporter ESC line, a donor vector harboring a Strep-HA-P2A-EGFP cassette flanked by NELFA left and right homology arms (826 bp and 924 bp respectively) was co-transfected with the CRISPR-Cas9 sgRNA cloning vector, pX458, containing the Nelfa sgRNA sequence ([…])(SEQ ID NO: 1). Positive transfectants were GFP-sorted and targeted single clones validated by genotyping.
FACSAria Cell Sorter (BD Biosciences) was used to quantify the proportion of EGFPpositive and EGFP-negative cells from the reporter mESC lines. The Moflow sorter was used to sort EGFP-positive and EGFP-negative cells for RNA-seq and NoME-seq studies.

[2] = system: NELFA reporter mESCs; experiment: Immunofluorescence for 2C-like markers and H1-mCherry in NELFA reporter mESCs
Protocol: as §1
For generation of histone H1-mCherry stable mESCs, mouse H1e-mCherry fusion DNA sequence was ordered as a Gblock from IDT, amplified and inserted into the expression plasmid, pCAG-IRES-hygromycin. The pCAG-H1-mCherry-IRES-hygromycin plasmid was linearized with FspI and transfected into both NELFA-StrepHA-P2A-EGFP reporter mESCs and Dox-inducible pTRE-NELFA-StrepHA mESCs. Transfected cells were selected with hygromycin B (150 μg/ml) for 4 days before single colony sub-cloning.
Briefly mESCs were grown on gelatin-coated imaging dishes, fixed in 4% PFA for 10 min at room temperature, permeabilized and blocked in 0.1% TRITON™ X-100/1% BSA for 30 min. Cells were incubated in primary antibodies overnight at 4° C. followed by three washes in blocking buffer. […]

[3] = system: NELFA reporter mESCs; experiment: RNA-seq transcriptomic profiling of unsorted 2-DG-treated NELFA reporter mESCs; settings: adjusted p-value≤0.01 and fold-change≥2
Protocol: as §1, with “3 days. […]” for “3 days.”
Single- and Paired-end raw sequencing reads were trimmed with Trim Galore (v0.4.2_dev; www.bioinformatics.babraham.ac.uk/projects/trim_galore/) with parameters: --trim-n (single-end, NELFA reporter mESCs) or -paired (paired-end, Doxinducible NELFA-EGFP and 2DG-treated NELFA reporter mESCs). Cleaned reads were then mapped to the mouse GRCm38 reference genome, guided by the vM9 gene model from the GENCODE project using the RSEM pipeline (v1.1.11). […] Reads mapping and quantification of individual repetitive element expression were carried out by using the RepEnrich pipeline, which takes a two-step approach. Briefly, reads were mapped to the mouse genome (mm10) by Bowtie (v1.1.2), and separated into multiple-mapped and uniquely mapped reads. […]

[4] = system: mESCs; experiment: RT-qPCR of 2C-relevant genes in mESCs; settings: 2-DG stimulation alone
Protocol: Unless otherwise stated, all mESC lines were cultured in serum-containing ESC medium containing Knockout DMEM, 15% FCS, L-Glutamine, non-essential amino acids, penicillin/streptomycin, 2-mercaptoethanol and supplemented with LIF, 1 μM PD0325901 and 3 µM CHIR99021 (2i′). For serum-free ‘naïve’ culture condition, mESCs were grown in N2B27 medium supplemented with LIF and 2i. For 2-DG experiments, ESCs were grown in serum-containing ESC medium with 4 mM 2-DG (Sigma; D8375) for up to 4 days. For MYC inhibitor treatment, ESCs were grown in serum-containing ESC medium with […] MYC inhibitor, 10058-F4 (Abcam), for 3 days. siRNAs were purchased from GE Dharmacon and Qiagen and transfected into mESCs using Lipofectamine RNAiMAX according to manufacturer's instructions. Both forward and reverse transfections were carried out. The final concentration of siRNA used was 40 nM per transfection and the effect of knockdown analyzed at 72 h. 0.5-1 μg of total RNA was used as input for cDNA preparation with the SensiFAST cDNA synthesis kit (Bioline; 65054). Reverse transcription was carried out with standard cycling condition as per manufacturer's instructions. […] Relative gene expression fold change was calculated using the delta delta CT method and statistical significance was assessed using a student's T-test.

## O=CC[C@@H](O)[C@H](O)[C@H](O)CO [2-DG, 2-deoxy-D-glucose]
[1]; NELFA reporter mESCs, conventional culture conditions, 4 mM 2-DG, 4 days
  increase in the NELFA^high subpopulation following 2-DG treatment: up to 8 fold
[1]; addition of 2-DG to Nelfa reporter ESCs
  change in Nelfa^high ESC subpopulation (in words): prominent increase
[2]; 2-DG-treated NELFA-positive mESCs
  expression of MERVL family of retrotransposons and Zscan4 by immunofluorescence: upregulation
[2]; NELFA-EGFP reporter mESCs stably expressing H1-mCherry, following 2-DG treatment
  H1 localization on heterochromatin in NELFA^high mESCs: clear displacement
[3]
  number of genes upregulated after 2-DG treatment: 175 genes
[4]
  induction of Gata3 by RT-qPCR: not observed

## CCc1ccc(/C=C2/SC(=S)NC2=O)cc1 [10058-F4]
[1]; NELFA reporter mESCs, 64 µM MYC inhibitor 10058-F4, 3 days
  change in NELFA^high population (in words): no increase
